Where a SMILES comes first, the peptide text is derived from it. Bridges are numbered along the chain shown (N, C = ends). [ ]: non-standard residue; d: D form. The star is where a group is joined. Biotin = O=C1N[C@H]2[C@H](CS[C@H]2CCCCC(=O)*)N1; 2Nal = N[C@@H](Cc1ccc2ccccc2c1)C(=O)O; Gly(cPent) = N[C@H](C(=O)O)C1CCCC1; Hyp = O=C(O)[C@@H]1C[C@@H](O)CN1; Pen = CC(C)(S)[C@H](N)C(=O)O; Api = NC1(C(=O)O)CCNCC1; Ahx = NCCCCCC(=O)O
Molecular target: chymotrypsin (Bos taurus, UniProt P00766)
Assay: Protease stability assay with chymotrypsin
Assay type: in vitro ADME
Settings: NCBP-4 versus CBP; 50:1 by mass, up to 30 min, LC-MS

## CC1(C)SSC[C@H](NC(=O)[C@H](Cc2ccccc2)NC(=O)[C@@H](NC(=O)[C@H](Cc2ccccc2)NC(=O)C2(NC(=O)[C@H](Cc3ccc4ccccc4c3)NC(=O)[C@H](CCCCN)NC(=O)CCCCCNC(=O)[C@@H](N)CCCCNC(=O)CCCC[C@@H]3SC[C@@H]4NC(=O)N[C@@H]43)CCNCC2)C2CCCC2)C(=O)N2C[C@H](O)C[C@H]2C(=O)N[C@@H](Cc2ccccc2)C(=O)N[C@@H](Cc2ccc(O)cc2)C(=O)N[C@@H](Cc2ccc(O)cc2)C(=O)N[C@@H](CCCCN)C(=O)N2C[C@H](O)C[C@H]2C(=O)N[C@@H]1C(=O)N[C@@H](CCCCN)C(N)=O [NCBP-4] (H-K(Biotin)[Ahx]K[2Nal][Api]F[Gly(cPent)]FC[Hyp]FYYK[Hyp][Pen]K-NH2; disulfide 9-16; N-terminus assumed)
  fold increase in half-life with chymotrypsin relative to CBP: 40 fold
